Data: article PMC12406652 (Antimicrobial Agents and Chemotherapy, 2025)
Marks after values point to notes of the source that are not given here.

Experiments:
[1] = Urinary pharmacokinetics on Day 10 after multiple doses of LED-E q8h; type: in vivo, human; settings: urine, geometric mean (geometric CV %); for CL renal: human, oral
Description: Quantitation used separate weighted 1 /x^2 linear least-squares regression analyses generated from calibration standards. Exploratory screening for metabolites was performed for some samples. […] Plasma pharmacokinetic parameters were calculated using noncompartmental analysis of the plasma and urine concentration-time data. […] AUCinf and Cmax were natural log-transformed before analysis, using a linear mixed effects model. […] In both studies, plasma pharmacokinetic parameters were calculated using WinNonlin (Certara; Radnor, PA), and urine pharmacokinetic parameters were calculated using SAS (SAS Institute; Cary, NC).

[2] = Urinary pharmacokinetics after single doses of LED-E; type: in vivo, human; settings: urine, geometric mean (geometric CV %); for CL renal: human, oral
Description: Plasma and urine pharmacokinetics samples were assayed for LED-E, LED, and CTB, as appropriate using validated bioanalytical methods. […] Quantitation used separate weighted 1 /x^2 linear least-squares regression analyses generated from calibration standards. Exploratory screening for metabolites was performed for some samples. In both studies, plasma pharmacokinetic parameters were calculated using WinNonlin (Certara; Radnor, PA), and urine pharmacokinetic parameters were calculated using SAS (SAS Institute; Cary, NC).

[3] = Plasma pharmacokinetics after single ascending doses of LED-E (VNRX-7145-101 Part 1); type: in vivo; settings: human, oral; for Vd/F: read-out: Vz/F; for Tmax: median (range)
Description: (§1) Quantitation used separate weighted 1 /x^2 linear least-squares regression analyses generated from calibration standards. Exploratory screening for metabolites was performed for some samples. […] Single-dose plasma pharmacokinetic parameters were determined in Part 1, and both single-dose (Day 1) and multiple-dose (Day 12) parameters were determined in Part 2. […] Dose proportionality was analyzed using a power model in which pharmacokinetic exposure parameters and dose were converted to the natural log and linear regression results were reported, with the slope as the power estimate ([15]). […] In Part 2, achievement of steady-state concentrations was assessed using Tukey’s multiple comparison test for pre-dose and all dosing days (Days 2 to 10) for each dose level separately. In both studies, plasma pharmacokinetic parameters were calculated using WinNonlin (Certara; Radnor, PA), and urine pharmacokinetic parameters were calculated using SAS (SAS Institute; Cary, NC).

healthy participants = test: Safety and tolerability (treatment-emergent adverse events), studies VNRX-7145-101 and VNRX-7145-102; type: in vivo, human
Description: Safety was assessed via ongoing monitoring of adverse events, symptom-directed physical examinations, and changes in clinical laboratory measures, vital signs, and ECGs.

[4] = Urinary recovery on Day 10 after multiple doses of CTB + LED-E q8h (VNRX-7145-102 Part 3); settings: for Ae0–8 / Fe0–8 / CL renal: urine, geometric mean (geometric CV %); for CL renal: human, oral, CLr
[5] = Plasma pharmacokinetics on Day 10 after multiple doses of CTB + LED-E q8h (VNRX-7145-102 Part 3); settings: for AUC: AUCtau; for AUC / Cmax / half-life: geometric mean (CV %)
[6] = Plasma pharmacokinetics on Day 10 after multiple doses of LED-E q8h (VNRX-7145-101 Part 2, VNRX-7145-102 Part 2); type: in vivo, human; settings: human, oral, plasma; for AUC / Cmax / Vd/F / half-life: geometric mean (CV %); for Vd/F: read-out: Vz/F; for Tmax: median (range); for half-life: read-out: t1/2 (converted)
Description: as §1, with “Single-dose plasma pharmacokinetic parameters were determined in Part 1, and both single-dose (Day 1) and multiple-dose (Day 12) parameters were determined in Part 2.” left out, “separately. […] Plasma pharmacokinetic parameters were calculated using noncompartmental analysis of the plasma and urine concentration-time data. […] AUCinf and Cmax were natural log-transformed before analysis, using a linear mixed effects model. […]” for “separately.”

[7] = multiple doses LED-E 500 mg q8h, after last dose (Day 10)
[8] = 1000 mg, single dose LED-E 1,000 mg, geometric mean (CV %)
[9] = single dose LED-E 100 mg, geometric mean (CV %)
[10] = single dose LED-E 200 mg, geometric mean (CV %)
[11] = single dose LED-E 300 mg, geometric mean (CV %)
[12] = single dose LED-E 500 mg, geometric mean (CV %)
[13] = single dose LED-E 800 mg, geometric mean (CV %)
[14] = Day 10, CTB 400 mg + LED-E 300 mg q8h
[15] = Day 10, CTB 400 mg + LED-E 500 mg q8h
[16] = human, oral, Day 10, CTB 400 mg + LED-E 300 mg q8h
[17] = human, oral, Day 10, CTB 400 mg + LED-E 500 mg q8h

`CCC(=O)N[C@H]1Cc2cccc(C(=O)OCOC(=O)C(CC)CC)c2OB1O` [Ledaborbactam etzadroxil] showed a CL renal ([1]; multiple doses LED-E 150 mg q8h) of 0.247 mL/min, a CL renal ([1]; multiple doses LED-E 300 mg q8h) of 0.121 mL/min and a CL renal ([1]; multiple doses LED-E 500 mg q8h) of 0.433 mL/min. The “Ae0–48” value ([1]; multiple doses LED-E 75 mg q8h, after last dose (Day 10)) was “below the limit of quantification”, the “Ae0–48” value ([1]; multiple doses LED-E 150 mg q8h, after last dose (Day 10)) was 0.00488 (47.9) mg and the “Ae0–48” value ([1]; multiple doses LED-E 300 mg q8h, after last dose (Day 10)) was 0.00378 (218) mg. The “Ae0–8” value [1, 7] was 0.0273 (38.5) mg, the “Ae0–48” value [1, 7] was 0.0273 (38.5) mg and the “Ae0–48” value ([1]; multiple doses LED-E 500 mg q8h, after last dose (Day 10), listed as LED-E) was 0.03 mg. The CL renal ([2]; single dose LED-E 300 mg) was 0.22 mL/min, the CL renal ([2]; single dose LED-E 500 mg) was 0.275 mL/min and the CL renal ([2]; single dose LED-E 800 mg) was 0.292 mL/min. For the same molecule, the CL renal ([2]; single dose LED-E 1000 mg) was 0.393 mL/min, the “Ae0–8” value ([2]; single dose LED-E 300 mg) was 0.00779 (51.0) mg and the “Ae0–8” value ([2]; single dose LED-E 500 mg) was 0.0212 (38.4) mg. The “Ae0–48” value ([2]; single dose LED-E 500 mg) was 0.0212 (38.4) mg, the “Ae0–8” value ([2]; single dose LED-E 800 mg) was 0.0301 (49.2) mg and the “Ae0–48” value ([2]; single dose LED-E 800 mg) was 0.0301 (49.2) mg. The “Ae0–8” value ([2]; single dose LED-E 1000 mg) was 0.0542 (68.6) mg, the “Ae0–48” value ([2]; single dose LED-E 1000 mg) was 0.0542 (68.6) mg and the AUC(0-inf) [3, 8] was 2300 ng·h/mL. The Cmax [3, 8] was 1840 ng/mL, the Vd/F [3, 8] was 2880 L and the half-life ([3]; 1000 mg, single dose LED-E 1,000 mg, geometric mean (CV %), read-out: t1/2 (converted)) was 4.59 h. It also gave a half-life ([3]; across single doses LED-E 100 to 1,000 mg, read-out: Geometric mean t1/2) of 2.8 to 4.7 h, an AUC(0-inf) [3, 9] of 177 ng·h/mL and a Cmax [3, 9] of 167 ng/mL. It also gave a Vd/F [3, 9] of 2290 L, a half-life ([3]; single dose LED-E 100 mg, geometric mean (CV %), read-out: t1/2 (converted)) of 2.81 h and a Tmax ([3]; single dose LED-E 100 mg) of 0.5 h. The AUC(0-inf) [3, 10] was 249 ng·h/mL, the Cmax [3, 10] was 167 ng/mL and the half-life ([3]; single dose LED-E 200 mg, geometric mean (CV %), read-out: t1/2 (converted)) was 3.34 h. It also gave a Tmax ([3]; single dose LED-E 200 mg) of 0.5 h, an AUC(0-inf) [3, 11] of 439 ng·h/mL and a Cmax [3, 11] of 347 ng/mL. The half-life ([3]; single dose LED-E 300 mg, geometric mean (CV %), read-out: t1/2 (converted)) was 3.63 h, the Tmax ([3]; single dose LED-E 300 mg) was 0.5 h and the AUC(0-inf) [3, 12] was 1290 ng·h/mL. For the same molecule, the Cmax [3, 12] was 917 ng/mL, the Vd/F [3, 12] was 2640 L and the half-life ([3]; single dose LED-E 500 mg, geometric mean (CV %), read-out: t1/2 (converted)) was 4.7 h. For the same molecule, the AUC(0-inf) [3, 13] was 1720 ng·h/mL, the Cmax [3, 13] was 1160 ng/mL and the Vd/F [3, 13] was 2260 L. The half-life ([3]; single dose LED-E 800 mg, geometric mean (CV %), read-out: t1/2 (converted)) was 3.37 h, the Tmax ([3]; single dose LED-E 800 mg) was 0.5 h and the “Participants with fatigue (TEAE)” value (healthy participants; LED-E-dosed participants) was 9.2%. The “Participants with headache (TEAE)” value (healthy participants; LED-E-dosed participants) was 20.2%, the Tolerability (healthy participants; all dose levels, alone or in combination with CTB) was “well tolerated” and the “Participants with gastrointestinal TEAEs” value (healthy participants; n = 109, pooled studies, all mild) was 27.5%. For the same molecule, the “Serious or severe TEAEs” value (healthy participants; single or multiple doses, alone or with CTB) was “no serious or severe TEAEs”, the “Ae0–8” value [4, 14] was 0.0113 (41.4) mg and the “Fe0–8” value [4, 14] was 0.00377 (41.4) %. For the same molecule, the “Ae0–8” value [4, 15] was 0.0271 (58.4)^d mg, the “Fe0–8” value [4, 15] was 0.00542 (58.4)^d % and the “Fe0-8 recovered in urine, of the last dose” value ([4]; Day 10, across CTB 400 mg + LED-E 300 mg q8h and CTB 400 mg + LED-E 500 mg q8h) was “less than 0.01%”. The CL renal [4, 14] was 0.402 mL/min, the CL renal [4, 15] was 0.42 mL/min and the “Change in geometric mean AUCtau from the first to the last dose” value ([5]; Day 10, CTB 400 mg + LED-E 300 or 500 mg q8h, both dose groups) was “unchanged”. The AUC [5, 16] was 463 ng·h/mL, the AUC [5, 17] was 1090 ng·h/mL and the Cmax [5, 16] was 467 ng/mL. For the same molecule, the Cmax [5, 17] was 1180 ng/mL, the Tmax ([5]; human, oral, Tmax, Day 10, CTB 400 mg + LED-E 300 mg q8h, median (range)) was 0.5 h and the half-life ([5]; human, oral, t1/2, Day 10, CTB 400 mg + LED-E 300 mg q8h) was 7.68 h. For the same molecule, the half-life ([5]; human, oral, t1/2, Day 10, CTB 400 mg + LED-E 500 mg q8h) was 10.7 h, the AUC ([6]; Day 10, LED-E 75 mg q8h, 0 to 8 h post-dose) was 85.5 ng·h/mL and the Cmax ([6]; Day 10, LED-E 75 mg q8h) was 122 ng/mL. For the same molecule, the Vd/F ([6]; Day 10, LED-E 75 mg q8h) was 3880 L, the Tmax ([6]; Day 10, LED-E 75 mg q8h) was 0.5 h and the AUC ([6]; Day 10, LED-E 150 mg q8h) was 309 ng·h/mL. For the same molecule, the Cmax ([6]; Day 10, LED-E 150 mg q8h) was 447 ng/mL, the Vd/F ([6]; Day 10, LED-E 150 mg q8h) was 3350 L and the Tmax ([6]; Day 10, LED-E 150 mg q8h) was 0.5 h. For the same molecule, the AUC ([6]; Day 10, LED-E 300 mg q8h) was 480 ng·h/mL, the Cmax ([6]; Day 10, LED-E 300 mg q8h) was 629 ng/mL and the Vd/F ([6]; Day 10, LED-E 300 mg q8h) was 6080 L. The Tmax ([6]; Day 10, LED-E 300 mg q8h) was 0.5 h, the AUC ([6]; Day 10, LED-E 500 mg q8h) was 1050 ng·h/mL and the Cmax ([6]; Day 10, LED-E 500 mg q8h) was 919 ng/mL. The Vd/F ([6]; Day 10, LED-E 500 mg q8h) was 6290 L, the half-life ([6]; 75 mg, Day 10, LED-E 75 mg q8h) was 3.07 h and the half-life ([6]; 150 mg, Day 10, LED-E 150 mg q8h) was 4.78 h. For the same molecule, the half-life ([6]; 300 mg, Day 10, LED-E 300 mg q8h) was 6.75 h and the half-life ([6]; 500 mg, Day 10, LED-E 500 mg q8h) was 9.14 h.
